Measured values as given in article PMC6915869, “Immunosuppressive effects of a novel potassium channel toxin Ktx-Sp2 from Scorpiops Pocoki” (Cell & Bioscience, 2019).
Entries after “also recorded” stand apart in the source; their conditions may differ. Bridge positions count the residues as written; N and C are the ends. Peptide text beside a SMILES is read from it.

Tests used:
[1] = target: T1, mKv1.3 (Mus musculus, UniProt P16390); assay: Whole-cell patch-clamp, exogenous Kv1.3 in HEK293T cells; format: cell-based
T1 construct: expressed in transfected cells; host or cells: HEK293T, vector pIRES2-EGFP (bicistronic, EGFP not fused)
T1 sequence (P16390 whole entry, the tested form may be a part): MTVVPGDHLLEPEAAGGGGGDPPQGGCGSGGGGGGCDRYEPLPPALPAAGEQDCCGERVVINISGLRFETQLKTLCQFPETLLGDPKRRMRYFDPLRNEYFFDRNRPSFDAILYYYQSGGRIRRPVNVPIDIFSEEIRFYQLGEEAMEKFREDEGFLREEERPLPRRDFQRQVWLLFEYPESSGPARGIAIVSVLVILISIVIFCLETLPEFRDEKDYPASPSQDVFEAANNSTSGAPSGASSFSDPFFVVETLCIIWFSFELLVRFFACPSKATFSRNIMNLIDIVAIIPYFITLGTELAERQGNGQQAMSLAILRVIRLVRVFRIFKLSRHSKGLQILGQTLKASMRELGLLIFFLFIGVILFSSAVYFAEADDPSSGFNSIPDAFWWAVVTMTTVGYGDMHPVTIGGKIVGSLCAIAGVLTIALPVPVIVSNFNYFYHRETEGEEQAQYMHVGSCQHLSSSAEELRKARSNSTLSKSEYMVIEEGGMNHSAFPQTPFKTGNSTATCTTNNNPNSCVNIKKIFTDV
Experimental: (§1) Mouse spinal columns were removed and placed in ice cold HBSS, then laminectomies were performed and bilateral DRG were dissected out. After removal of connective tissues, DRG were transferred to a 1 ml Ca^2+/Mg^2+-free HBSS containing 2 μl saturated NaHCO3, 0.35 mg L-cysteine and 20 U papain (Worthington, Lakewood, NJ, USA), and incubated at 37 °C for 10 min. The suspension of DRG was centrifuged, the supernatant was removed, 1 ml Ca^2+/Mg^2+-free HBSS containing 4 mg collagenase type II and 1.25 mg dispase type II (Worthington) was added and incubated at 37 °C for 10 min. After digestion, neurons were pelleted, suspended in neurobasal medium containing 2% B-27 supplement, 1% L-glutamine, 100 U/ml penicillin plus 100 μg/ml streptomycin, and 50 ng/ml nerve growth factor, plated on a 12 mm coverslip coated with poly-L-lysine (10 μg/ml) and cultured under a humidified atmosphere of 5% CO2/95% air at 37 °C for 18–24 h before use. Jurkat E6-1 T cells (ATCC TIB152) and HEK293T cells (ATCC ACS4500) were maintained in RPMI medium 1640 (Invitrogen, Carlsbad, CA, USA) and Dulbecco’s modified Eagle’s medium (DMEM) (Life Technologies,GrandIsland, NY, USA), supplemented with 10% fetal bovine serum (Life Technologies), 100 units/ml penicillin, 100 μg/ml streptomycin, respectively. Cells were cultured in a humidified incubator at 37 °C with 5% CO2. […]

[2] = target: T2, mKv1.1 (Mus musculus, UniProt P16388); assay: Whole-cell patch-clamp, exogenous Kv1.1 in HEK293T cells; format: cell-based
T2 construct: expressed in transfected cells; host or cells: HEK293T, vector pIRES2-EGFP (bicistronic, EGFP not fused)
T2 sequence (P16388 whole entry, the tested form may be a part): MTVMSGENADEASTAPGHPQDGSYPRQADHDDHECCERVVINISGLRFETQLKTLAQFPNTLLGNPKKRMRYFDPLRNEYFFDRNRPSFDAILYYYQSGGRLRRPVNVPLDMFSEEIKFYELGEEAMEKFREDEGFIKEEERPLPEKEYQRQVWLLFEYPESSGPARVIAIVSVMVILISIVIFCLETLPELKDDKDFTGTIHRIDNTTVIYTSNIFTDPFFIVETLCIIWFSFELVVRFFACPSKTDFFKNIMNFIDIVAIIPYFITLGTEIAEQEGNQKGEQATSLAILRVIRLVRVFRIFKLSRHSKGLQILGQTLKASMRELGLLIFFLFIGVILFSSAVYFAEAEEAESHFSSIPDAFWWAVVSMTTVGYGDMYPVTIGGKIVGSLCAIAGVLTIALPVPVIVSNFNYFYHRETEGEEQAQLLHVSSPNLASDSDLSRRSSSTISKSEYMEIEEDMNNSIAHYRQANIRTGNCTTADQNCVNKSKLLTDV
Experimental: (§2) Mouse spinal columns were removed and placed in ice cold HBSS, then laminectomies were performed and bilateral DRG were dissected out. After removal of connective tissues, DRG were transferred to a 1 ml Ca^2+/Mg^2+-free HBSS containing 2 μl saturated NaHCO3, 0.35 mg L-cysteine and 20 U papain (Worthington, Lakewood, NJ, USA), and incubated at 37 °C for 10 min. The suspension of DRG was centrifuged, the supernatant was removed, 1 ml Ca^2+/Mg^2+-free HBSS containing 4 mg collagenase type II and 1.25 mg dispase type II (Worthington) was added and incubated at 37 °C for 10 min. After digestion, neurons were pelleted, suspended in neurobasal medium containing 2% B-27 supplement, 1% L-glutamine, 100 U/ml penicillin plus 100 μg/ml streptomycin, and 50 ng/ml nerve growth factor, plated on a 12 mm coverslip coated with poly-L-lysine (10 μg/ml) and cultured under a humidified atmosphere of 5% CO2/95% air at 37 °C for 18–24 h before use. Jurkat E6-1 T cells (ATCC TIB152) and HEK293T cells (ATCC ACS4500) were maintained in RPMI medium 1640 (Invitrogen, Carlsbad, CA, USA) and Dulbecco’s modified Eagle’s medium (DMEM) (Life Technologies,GrandIsland, NY, USA), supplemented with 10% fetal bovine serum (Life Technologies), 100 units/ml penicillin, 100 μg/ml streptomycin, respectively. Cells were cultured in a humidified incubator at 37 °C with 5% CO2. The cDNAs encoding mKv1.1, mKv1.2, mKv1.3, mNav1.4, mNav1.5 and mNav1.7 were subcloned into the XhoI/BamHI sites of a bicistronic vector, pIRES2-EGFP (Clontech, USA), then transiently transfected into HEK293-T cells using Lipofectamine 2000 (Invitrogen) for electrophysiological experiments.
Whole-cell patch-clamp recordings were performed using an EPC 9 amplifier (HEKA Elektronik, Lambrecht/Pfalz, Germany) at room temperature (22–24 °C). Pipettes pulled from borosilicate glass (BF 150-86-10; Sutter Instrument Company, Novato, CA, USA) had resistances of 2–4 MΩ when filled with the internal solution. […]

[3] = target: T3, mKv1.2 (Mus musculus, UniProt P63141); assay: Whole-cell patch-clamp, exogenous Kv1.2 in HEK293T cells; format: cell-based
T3 construct: expressed in transfected cells; host or cells: HEK293T, vector pIRES2-EGFP (bicistronic, EGFP not fused)
T3 sequence (P63141 whole entry, the tested form may be a part): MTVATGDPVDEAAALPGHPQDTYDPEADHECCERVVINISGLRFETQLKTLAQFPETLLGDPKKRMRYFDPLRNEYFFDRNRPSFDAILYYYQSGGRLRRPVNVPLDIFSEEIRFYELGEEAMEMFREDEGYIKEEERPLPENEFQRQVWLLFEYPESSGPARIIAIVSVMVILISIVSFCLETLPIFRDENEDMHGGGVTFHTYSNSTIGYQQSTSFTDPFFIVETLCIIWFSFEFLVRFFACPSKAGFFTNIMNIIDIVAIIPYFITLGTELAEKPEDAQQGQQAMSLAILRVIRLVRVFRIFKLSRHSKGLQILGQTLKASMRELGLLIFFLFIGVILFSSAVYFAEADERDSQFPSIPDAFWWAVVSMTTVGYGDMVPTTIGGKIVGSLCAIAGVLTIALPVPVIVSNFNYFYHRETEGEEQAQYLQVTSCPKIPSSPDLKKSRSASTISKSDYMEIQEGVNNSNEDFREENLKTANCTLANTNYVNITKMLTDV
Experimental: as §2
(§3) Whole-cell patch-clamp recordings were performed using an EPC 9 amplifier (HEKA Elektronik, Lambrecht/Pfalz, Germany) at room temperature (22–24 °C). Pipettes pulled from borosilicate glass (BF 150-86-10; Sutter Instrument Company, Novato, CA, USA) had resistances of 2–4 MΩ when filled with the internal solution. The internal pipette solution for recording Kv currents contained: KCl 140 mM, MgCl2 1 mM, EGTA 1 mM, Na2ATP 3 mM, HEPES 10 mM (pH 7.3 with KOH); for recording Na currents contained: CsCl 100 mM, CsF 40 mM, MgCl2 2 mM, HEPES 10 mM, EGTA 10 mM, D-Glucose 10 mM, Na2ATP 3 mM (pH 7.3 with CsOH). The external solution for recording Kv currents contained: KCl 5 mM, NaCl 140 mM, HEPES 10 mM, CaCl2 2 mM, MgCl2 1 mM, D-Glucose 10 mM (pH 7.4 with NaOH); for recording Na currents contained: NaCl 132 mM, KCl 5.4 mM, CaCl2 1.8 mM, MgCl2 0.8 mM, HEPES 10 mM, D-Glucose 5 mM (pH 7.4 with NaOH). Kv currents were elicited by + 50 mV, 400 ms depolarizing pulse from the holding potential of − 60 mV every 20 s, and Na currents were elicited by + 10 mV, 100 ms depolarizing pulse from the holding potential of − 60 mV every 10 s. […]

[4] = system: endogenous sodium channels expressed by DRG neurons; assay: Whole-cell patch-clamp, endogenous sodium channels of DRG neurons; format: cell-based, mouse; conditions: 1 μM; +10 mV 100 ms pulse from -60 mV every 10 s
Experimental: as §1

[5] = system: mNav1.4; assay: Whole-cell patch-clamp, exogenous Nav1.4 in HEK293T cells; format: cell-based; conditions: 1 μM, +10 mV 100 ms pulse from -60 mV every 10 s
Experimental: as §1

[6] = system: mNav1.5; assay: Whole-cell patch-clamp, exogenous Nav1.5 in HEK293T cells; format: cell-based; conditions: 1 μM, +10 mV 100 ms pulse from -60 mV every 10 s
Experimental: as §1

[7] = system: mNav1.7; assay: Whole-cell patch-clamp, exogenous Nav1.7 in HEK293T cells; format: cell-based; conditions: 1 μM, +10 mV 100 ms pulse from -60 mV every 10 s
Experimental: as §1

[8] = target: T4, endogenous Kv1.3 expressed by human Jurkat T cells (Homo sapiens, UniProt P22001); assay: Whole-cell patch-clamp, endogenous Kv1.3 in Jurkat T cells; format: cell-based
T4 construct: endogenous Kv1.3 expressed by human Jurkat T cells; host or cells: Jurkat E6-1 T cells
T4 sequence (P22001 whole entry): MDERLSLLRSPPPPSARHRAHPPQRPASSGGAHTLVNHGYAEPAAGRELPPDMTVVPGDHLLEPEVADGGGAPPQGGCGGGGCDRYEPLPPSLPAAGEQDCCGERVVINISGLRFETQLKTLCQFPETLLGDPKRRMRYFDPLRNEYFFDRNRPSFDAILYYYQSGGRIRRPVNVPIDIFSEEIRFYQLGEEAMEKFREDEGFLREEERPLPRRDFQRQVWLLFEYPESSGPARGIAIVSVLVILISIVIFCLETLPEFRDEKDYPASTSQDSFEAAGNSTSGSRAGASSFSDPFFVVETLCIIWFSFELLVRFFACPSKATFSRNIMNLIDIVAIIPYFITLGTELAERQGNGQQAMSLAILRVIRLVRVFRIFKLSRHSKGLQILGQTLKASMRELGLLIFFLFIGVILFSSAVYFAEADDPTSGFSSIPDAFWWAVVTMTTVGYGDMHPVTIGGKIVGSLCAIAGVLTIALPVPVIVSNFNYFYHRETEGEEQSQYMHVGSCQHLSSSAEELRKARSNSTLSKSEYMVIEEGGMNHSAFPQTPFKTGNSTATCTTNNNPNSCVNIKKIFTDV
Experimental: as §2, §3

[9] = system: Ca^2+ influx in Jurkat T cells; assay: Live cell Ca^2+ imaging (Fura-2) in Jurkat T cells; format: cell-based, human; conditions: for inhibition of Ca^2+ influx / free calcium concentration (in words): 10 μM Ktx-Sp2, 3 min pre-treatment, 10 μM CPA, then 2 mM Ca^2+
Experimental: Jurkat T cells were loaded with 4 μM Fura-2 AM (Life Technologies) for 60 min at 37 °C. Cells were then washed 3 times and incubated in Hank’s Balanced Salt Solution (HBSS) for 30 min at room temperature before use. Fluorescence at 340 nm and 380 nm excitation wavelengths was recorded on an inverted Nikon Ti-E microscope equipped with 340, 360 and 380 nm excitation filter wheels using NIS-Elements imaging software (Nikon Instruments Inc., Melville, NY, USA). Fura-2 ratios (F340/F380) reflect changes in [Ca^2+]i upon stimulation. Data were obtained from 100 to 250 cells in time-lapse images from each coverslip.
To test this hypothesis we performed live cell Ca^2+ imaging using the Ca^2+ indicator dye Fura-2 to determine the effect of Ktx-Sp2 on [Ca^2+]i in the presence of intracellular Ca^2+ store depletion by cyclopiazonic acid (CPA), an inhibitor of the sarcoplasmic reticulum Ca^2+-ATPase. […] When 2 mM Ca^2+ was added to the Ca^2+-free HBSS, we observed a large Ca^2+ influx into the cells. […] At 10 μM, Ktx-Sp2 decreased the F340/F380 ratio from 0.14 ± 0.02 to 0.05 ± 0.01 (n = 278) (Fig. 5b).

[10] = system: IL-2 secretion from Jurkat T cells; assay: IL-2 secretion from ConA-activated Jurkat T cells (ELISA); format: cell-based, human; conditions: ConA 10 μg/ml; for ConA-induced IL-2 secretion (in words): Ktx-Sp2 10 nM, 100 nM, 1 μM and 10 μM, 24 h, ELISA at 450 nm, n = 6, ***P < 0.0001
Experimental: IL-2 secretion from Jurkat T cells was measured using an ELISA kit (eBioscience, San Diego, CA, USA) following manufacturer’s instructions. Cells were centrifuged at 1500 rpm for 10 min, and the supernatants were collected to measure IL-2 concentrations. Reactions were performed in 96-well plates coated with the capture antibody and stopped with phosphoric acid (1 M). Absorbance was measured at 450 nm. Each experiment was repeated at least three times in duplicate.
The cytokine IL-2 is predominantly secreted from activated T cells and is critical in regulating the balance between immune tolerance and autoimmunity. The secretion of IL-2 is driven by a rise of [Ca^2+]i. Since Ktx-Sp2 potently suppresses Kv1.3 function and decreases Ca^2+ influx in Jurkat T cells we next asked whether Ktx-Sp2 could inhibit IL-2 secretion, which should result in functional immunosuppression. As a classical polyclonal stimulator acting through T-cell receptor complex (TCR)-CD3 complex, ConA has been used to induce T cell activation and stimulate IL-2 secretion, which is dependent on an increase of [Ca^2+]i. We thus used the ConA-stimulated IL-2 secretion in the growth media as readout.
Fig. 6 Ktx-Sp2 inhibits IL-2 secretion from activated Jurkat T cells. The concentrations of IL-2 in cell growth media were measured by ELISA. Jurkat T cells were activated by ConA (10 μg/ml) for 24 h. Ktx-Sp2 (10 nM, 100 nM, 1 μM and 10 μM) were added simultaneously with ConA. ***P < 0.0001, n = 6

[11] = +50 mV 400 ms pulse from -60 mV every 20 s, room temperature (22–24 °C), mean ± SEM

CSCC[C@@H]1NC(=O)[C@@H]2CSSC[C@H](NC(=O)[C@H](CCCCN)NC(=O)[C@H](C)NC(=O)CNC(=O)[C@H](Cc3c[nH]cn3)NC(=O)[C@H](CC(C)C)NC(=O)[C@@H]3CCCN3C(=O)[C@@H](N)CO)C(=O)N[C@@H](CO)C(=O)N[C@@H](CO)C(=O)N[C@@H](CO)C(=O)N[C@@H](CC(N)=O)C(=O)N[C@@H](CCC(N)=O)C(=O)N[C@H]3CSSC[C@H](NC(=O)[C@H](CCCNC(=N)N)NC(=O)CNC(=O)[C@H](CC(N)=O)NC1=O)C(=O)N[C@@H](CCCNC(=N)N)C(=O)N[C@H](C(=O)N[C@@H](Cc1ccc(O)cc1)C(=O)NCC(=O)O)CSSC[C@H](NC(=O)[C@@H]1CCCN1C(=O)[C@H](CCCNC(=N)N)NC(=O)[C@H]([C@@H](C)O)NC3=O)C(=O)N[C@@H](CCCNC(=N)N)C(=O)N[C@@H](Cc1ccc(O)cc1)C(=O)NCC(=O)NCC(=O)NCC(=O)N[C@@H]([C@@H](C)O)C(=O)N[C@@H](Cc1c[nH]cn1)C(=O)NCC(=O)N[C@@H](CCCCN)C(=O)N2 [Ktx-Sp2] (H-SPLHGAKCSSSNQCTRPCRYGGGTHGKCMNGRCRCYG-OH; disulfide 8-28, 14-33, 18-35 (inferred); N-terminus and C-terminus assumed)
IC50 ([1]; +50 mV 400 ms pulse from -60 mV every 20 s, room temperature (22–24 °C), mean ± SEM, n = 8, read-out: IC50 for mKv1.3-mediated currents): 0.0147 ± 0.00198 µM
blocking of Kv1.3 (in words) ([1]; exogenous channel): the blocking activity for Kv1.3 was relatively high; also recorded: the blocking activity on Kv1.3 channel is the strongest
IC50 [2, 11]: 0.485 ± 0.0255 µM
blocking activity on Kv1.3 relative to Kv1.1 (Discussion) ([2]; Discussion section): 33 times
blocking of Kv1.1 (in words) ([2]; exogenous channel): effectively block
IC50 [3, 11]: 0.0569 ± 0.00232 µM
blocking activity on Kv1.3 relative to Kv1.2 (Discussion) ([3]; Discussion section): 4 times
blocking activity on Kv1.2 channel (rounded, Discussion) ([3]; electrophysiology): about 57 nM
blocking of Kv1.2 (in words) ([3]; exogenous channel): effectively block; also recorded: high blocking activity
effect on endogenous sodium channels of DRG neurons [4]: almost had no effect
effect on Nav1.4 [5]: almost had no effect
effect on Nav1.5 [6]: almost had no effect
effect on Nav1.7 [7]: almost had no effect
blocking of endogenous Kv1.3 in Jurkat T cells (in words) [8]: effectively block endogenous Kv1.3; also recorded: equivalent to the exogenous expression Kv1.3 on the HEK293T cell membrane
reduction of Kv1.3 current ([8]; 30 nM, bath application, n = 5, +50 mV 400 ms pulse from -60 mV, almost zero cytosolic Ca^2+): about 50%
IC50 ([8]; +50 mV 400 ms pulse from -60 mV, almost zero cytosolic Ca^2+, currents normalized to control, Hill equation, read-out: IC50 for Kv1.3 current in Jurkat T cells): 0.0291 ± 0.00112 µM
reversibility of suppressive effect on Kv1.3 current after washout ([8]; bath application, washout): partially reversible after washout
inhibition of Ca^2+ influx / free calcium concentration (in words) [9]: significantly reduce the free calcium concentration in Jurkat T cells; also recorded: obvious inhibition of Ca^2+ influx
inhibition of Ca^2+ influx / free calcium concentration (in words) ([9]; listed as Ktx-sp2): effectively reduce the concentration of free Ca^2+ in Jurkat T cells
F340/F380 ratio (net change induced by 2 mM extracellular Ca^2+) ([9]; 10 μM Ktx-Sp2, pre-treatment 3 min, store depletion by 10 μM CPA, decreased from 0.14 ± 0.02 without peptide, n = 278, ****P ≤ 0.0001): 0.05 ± 0.01
activation of Jurkat T cells (in words) [10]: inhibit the activation of Jurkat T cells
activation of Jurkat T cells (in words) ([10]; listed as Ktx-sp2): inhibiting the activation effect of ConA on Jurkat T cells
ConA-induced IL-2 secretion (in words) [10]: reduce the release of inflammatory cytokines IL-2; also recorded: significantly reduced ConA-induced IL-2 secretion in a concentration-dependent manner
ConA-induced IL-2 secretion (in words) ([10]; listed as Ktx-sp2): significantly reducing the release of inflammatory cytokine IL-2
